Experimental data reported in US9393284B2, “Visfatin therapeutic agents for the treatment of acne and other conditions” (ARAVA BIO-TECH LTD., priority 2009, dated 2016).
Ends that are not written are not given here. * marks the point of attachment. Myristoyl = CCCCCCCCCCCCCC(=O)*

Key:
sebaceous glands = assay: Sebum production and maturation of sebaceous glands in newborn BalbC mice topically treated with visfatin antagonist siRNAs (Oil Red O, H&E, gland counts); format: in vivo, Mus musculus; conditions: siRNA free second control solution (PBS, 0.1% DMSO, 1 μg/ml MPDY), day 5 after birth
Protocol: Hematoxylin & Eosin Staining: Paraffin embedded skin biopsy section slides were incubated at 60° C. for 60 minutes and deparaffinized by washing the slides twice with toluene (100%) for 10 minutes and rehydrating the skin biopsy section slides in decreasing concentration of ethanol (100-50%) for 5 minutes each. The slides then were stained with a ready to use solution of hematoxylin for 5 minutes, rinsed with water, stained with eosin (0.5% in double distilled water) for 1.5 minutes and washed twice by rapid immersion in 70% ethanol. Thereafter, the slides were dehydrated by washing once with 95% ethanol for 5 minutes, twice with 100% ethanol for 5 minutes and twice with xylene (100%) for 10 minutes. This was followed by the application of ENTELLAN™ (Merck KGaA, Darmstadt, Germany) and the mounting of coverslips.
Oil Red O Staining: Frozen skin biopsy section slides were fixed in 1% neutral-buffered formalin for 5 minutes, washed in deionized water, and incubated in 60% isopropanol for 5 minutes. Skin biopsy section slides were stained with a fresh, filtered Oil Red O working solution which had been prepared immediately beforehand by making a 2:3 mixture of stock (0.5% Oil Red O in 99% isopropanol) and deionized water. […]

sebum production = conditions: background statement; cited from earlier work

| Molecule | effect of peptide alone on sebum production and skin (sebaceous glands) | decrease of sebum production (sebum production) |
| --- | --- | --- |
| MPDY: cationic, lipophilic, N-myristoylated peptide having the amino acid sequence FARKGALRQ (SEQ ID NO: 27) (Myristoyl-FARKGALRQ) | did not inhibit sebum production or otherwise discernibly alter the skin | – |
| CC1=C(/C=C/C(C)=C/C=C/C(C)=C\C(=O)O)C(C)(C)CCC1 [Isotretinoin] | – | up to 90% |
